Laboratory results published in publication PMC6449605, “Pyrophosphate Stimulates the Phosphate-Sodium Symporter of Trypanosoma brucei Acidocalcisomes and Saccharomyces cerevisiae Vacuoles” (mSphere, 2019).

Columns and labels:
Pho91p = molecular target: T1, Pho91p (Saccharomyces cerevisiae, UniProt P27514); assay: two-electrode voltage clamp, Xenopus oocytes; type: cell-based; settings: ND96, room temperature
T1 construct: gene PHO91; full length, cRNA expressed in Xenopus laevis oocytes
T1 sequence (P27514 1-894): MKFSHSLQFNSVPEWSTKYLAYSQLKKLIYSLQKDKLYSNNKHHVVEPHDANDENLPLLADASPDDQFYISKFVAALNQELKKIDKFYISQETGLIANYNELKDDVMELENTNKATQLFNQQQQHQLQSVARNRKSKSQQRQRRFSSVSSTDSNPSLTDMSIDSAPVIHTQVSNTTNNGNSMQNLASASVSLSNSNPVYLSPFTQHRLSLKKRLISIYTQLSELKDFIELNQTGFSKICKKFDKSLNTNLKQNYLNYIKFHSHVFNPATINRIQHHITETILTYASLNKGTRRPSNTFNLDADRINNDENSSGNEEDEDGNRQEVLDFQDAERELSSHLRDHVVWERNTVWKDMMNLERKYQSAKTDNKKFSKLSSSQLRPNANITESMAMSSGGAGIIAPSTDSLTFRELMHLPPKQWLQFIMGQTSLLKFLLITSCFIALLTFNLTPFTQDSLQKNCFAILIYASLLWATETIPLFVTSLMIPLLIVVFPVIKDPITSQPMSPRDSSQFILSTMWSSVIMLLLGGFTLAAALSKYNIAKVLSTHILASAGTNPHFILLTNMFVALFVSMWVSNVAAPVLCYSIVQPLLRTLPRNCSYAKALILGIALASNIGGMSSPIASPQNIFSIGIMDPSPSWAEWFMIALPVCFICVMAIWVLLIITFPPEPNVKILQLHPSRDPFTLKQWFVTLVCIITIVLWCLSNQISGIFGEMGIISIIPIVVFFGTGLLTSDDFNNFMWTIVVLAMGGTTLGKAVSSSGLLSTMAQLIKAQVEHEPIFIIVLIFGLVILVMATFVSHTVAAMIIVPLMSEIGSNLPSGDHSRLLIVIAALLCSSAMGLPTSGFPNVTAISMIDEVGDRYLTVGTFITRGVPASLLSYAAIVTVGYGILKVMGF

TbPho91 = molecular target: T2, TbPho91 (Trypanosoma brucei, UniProt Q383G2); assay: two-electrode voltage clamp, Xenopus oocytes; type: cell-based; settings: activator, modulates 10 mM Pi-evoked current; ND96 pH 7.5; room temperature
T2 construct: full length, cRNA expressed in Xenopus laevis oocytes (also in giant vacuoles of pho91-delta yeast)
T2 sequence (Q383G2 1-728): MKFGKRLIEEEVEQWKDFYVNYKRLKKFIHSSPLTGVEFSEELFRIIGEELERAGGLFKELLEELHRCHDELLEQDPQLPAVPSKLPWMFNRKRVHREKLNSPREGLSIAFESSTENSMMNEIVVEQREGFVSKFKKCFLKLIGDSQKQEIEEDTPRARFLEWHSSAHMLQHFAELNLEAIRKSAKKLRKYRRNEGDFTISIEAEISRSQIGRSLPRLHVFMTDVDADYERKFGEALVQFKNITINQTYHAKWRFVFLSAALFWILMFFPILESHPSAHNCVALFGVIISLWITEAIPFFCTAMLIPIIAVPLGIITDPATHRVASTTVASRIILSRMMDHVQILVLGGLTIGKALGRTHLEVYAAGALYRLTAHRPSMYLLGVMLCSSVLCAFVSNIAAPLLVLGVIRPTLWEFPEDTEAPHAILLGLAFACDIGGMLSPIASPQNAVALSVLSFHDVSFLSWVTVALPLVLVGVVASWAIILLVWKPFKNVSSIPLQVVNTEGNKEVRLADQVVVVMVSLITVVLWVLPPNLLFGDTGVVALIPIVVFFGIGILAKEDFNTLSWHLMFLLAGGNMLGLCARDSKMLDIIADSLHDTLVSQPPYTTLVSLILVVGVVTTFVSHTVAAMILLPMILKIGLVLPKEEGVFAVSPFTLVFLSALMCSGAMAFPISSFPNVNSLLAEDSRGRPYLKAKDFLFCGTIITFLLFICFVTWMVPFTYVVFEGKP

Compound: O=P(O)(O)OP(=O)(O)OP(=O)(O)O [polyP3]
- inward current amplitude at 10 mM (Pho91p; activator, 10 mM Na+/polyP3): 771.6 ± 168.4 nA
- threshold for significant amplification of Na+/Pi current (TbPho91): 200 µM

Compound: O=P(O)(O)OP(=O)(O)O [PPi]
- inward current amplitude at 10 mM (Pho91p; activator, 10 mM Na+/PPi): 447.8 ± 84.1 nA

Compound: O=P(O)(O)O [Pi]
- inward current amplitude at 10 mM (Pho91p; 10 mM Na+/Pi, Na+ co-transported): 146.8 ± 41.6 nA
